Data as given in US20250325467A1, “COMPOSITIONS FOR PREVENTING OR TREATING SKIN AGING” (ESTETRA SRL, priority 2021, published 2025).
“Also recorded” adds a separate entry of the source.

What was measured:
[1] = test system: Normal Human Epidermal Keratinocytes (NHEKs); test: Colonization of a standard acellular area (IBIDI chamber gap closure) by keratinocytes; assay type: cell-based; settings: for colonization of the cell-free area by NHEK, overall: all four concentrations (10^−7M to 10^−10M), vs ethanol control
Protocol: (§1) The study consists in an in vitro assay aiming to evaluate the properties of E4 and E2 at 4 concentrations each on keratinocytes and fibroblasts. In this assay, the measurement of the colonization of a standard acellular surface generated from a confluent monolayer of cells using a dedicated culture device (IBIDI chamber) is performed. The assay is performed in absence and in presence of a proliferation inhibitor to focus on cell proliferation and migration or on migration only, respectively.
The study was performed using cultures of Normal Human foreskin-derived Epidermal Keratinocytes (NHEKs, Lonza). The cells were grown in serum free Epilife medium (ThermoFisher Scientific) supplemented with Human Keratinocyte Growth Supplement (HKGS, ThermoFisher Scientific) and antibiotics. The cells were maintained in a humidified incubator at 37° C. with a 5% CO2 atmosphere.
(§2) Cells were plated in 2-well silicone inserts with a defined cell free gap (IBIDI chambers; IBIDI GmbH, 80209) that was previously inserted on 12-well culture plates. This culture device allows to create a standardized 500 μm±100 μm cell free gap for monitoring cell colonization. 24 h after seeding, when the culture reached high confluency, cells in the insert were treated, or not, with mitomycin C (MMC) at 10 μg/ml during 2 h. After these 2 hours, the insert was removed, and cells were treated with E2 or E4 in presence or not of MMC for additional 2 h. Then, if appropriate, the culture medium was removed and cells were treated with E2 or E4 for 22 h, in absence of MMC.
(§3) For the assay, keratinocytes were plated in Epilife medium without HKGS and all the treatments were performed in this medium. Fibroblasts were plated in DMEM medium containing only 2,5% of FBS and the treatments were performed in absence of FBS.
(§4) E2 and E4 were applied at 4 concentrations each (10^−7M, 10^−8M, 10^−9M, 10^−10M). In parallel, cells were treated with a positive control (HKGS 1% for human keratinocytes and PDGF-BB at 10 ng/ml for human fibroblasts).
(§5) To monitor cell colonization and to evaluate the gap closure rate, pictures of the gap were taken after different times: at time 0 h, corresponding to the beginning of the treatment with E2 or E4 and to the removal of the culture insert, at time 6 h and at time 24 h (corresponding to the end of the treatments with E2 or E4). Pictures were taken with a microscope Zeiss (Axiover 25-10× objective) and with a camera Invenio2EIII (DeltaPix—Lux-Optic). The colonized areas were quantified from the pictures by the use of the WimAsis platform—WimScratch software. For each insert, 3 pictures were taken at each time. As each condition was performed in triplicates, it means a total of 9 pictures per condition and per time point of acquisition

[2] = test system: Normal Human Dermal Fibroblasts (NHDFs); test: Colonization of a standard acellular area (IBIDI chamber gap closure) by fibroblasts; assay type: cell-based; settings: for NHDF Proliferation & Migration (colonization of the acellular area): absence of MMC, 6 h and 24 h; for colonized area, NHDF, positive reference: 10 ng/ml
Protocol: as §1
Normal Human forskin-derived Dermal Fibroblats (NHDFs, ATCC) cells were grown in phenol-free Dulbecco's Modified Eagle Medium (DMEM, ThermoFisher Scientific) supplemented with 10% of Foetal Bovine Serum (FBS, ThermoFisher Scientific), L-glutamine and antibiotics. The cells were maintained in a humidified incubator at 37° C. with a 5% CO2 atmosphere.
as §2, §3, §4, §5

[3] = test system: IL-6 release from NHEKs; test: PMA/A23187-induced IL-6 release from NHEKs (ELISA, normalized to viability); assay type: cell-based, human; settings: E2, 3 concentrations assessed (not specified); 24 h
Protocol: The Normal Human foreskin-derived Epidermal Keratinocytes (NHEKs, Lonza, 00192906), isolated from foreskin of 3 Caucasian donors, were grown in Epilife medium (Fisher Scientific, M-EPI-500-A) supplemented with Human Keratinocyte Growth Supplement (HKGS, Fisher Scientific, S-001-5) and antibiotics (Gentamycin, Fisher Scientific, 15710-049). The cells were maintained in a humidified incubator at 37° C. with a 5% CO2 atmosphere.
E4 and E2, provided as powder, were dissolved in 100% ethanol at 0.1M. They were then further diluted in ethanol and in culture medium to reach the appropriate concentrations. […] Practically, stock solutions 1000-fold concentrated were prepared in 100% ethanol, aliquoted and stored at −20° C. until cell application.
In order to induce the release of IL-6, NHEKs were exposed for 24 h with phorbol myristate acetate (PMA) at 10 ng/mL, in combination with calcium ionophore A23187 (Sigma Aldrich, C5722) at 2 μM. The treatments with the test or reference items were performed simultaneously with the inflammatory challenge. […] E4 was applied at 10^−4, 10^−5, 10^−6, 10^−7 and 10^−8 M and E2 at 10^−5, 10^−6, 10^−7, 10^−8 and 10^−9 M EtOH at 0.1% was tested as solvent control. Dexamethasone at 10 μM was used as anti-inflammatory reference. At the end of 24 h treatment, supernatants were harvested and stored at −20° C., and cell viability assay was assessed by MTS (see section 5). The kinetics of the treatments is outlined in FIG. 12. All the treatments were performed in triplicates (n=3).
The quantification of the release of inflammatory markers was performed using specific ELISA kits, based on standard curves, according to supplier's specifications. The results were then normalized to the corresponding cell viability (obtained by MTS assay).
The supplier's reference of the kits used for IL-6 quantification is as follows: IL-6, BioTechne, D6050.
At the end of the treatments and culture media collection, the viability of the cells was evaluated using the MTS (3-(4,5-dimethythiazol-2-yl)-5-(3-carboxy-methoxyphenyl)-2-(4-sulfophenyl)-2H-tetrazolium) assay. The effects of the treatments were compared to the untreated control condition and to the solvent control (EtOH 0.1%). The viability data were used in order to normalize the quantities of released inflammatory mediators.
NHEKs were treated as described in the methodology section. The quantification of IL-6 by ELISA was performed from the collected supernatants, following the instructions of the kit provider. Only 3 concentrations of the test items (chosen in accordance with the Sponsor following the results of the viability assay) were assessed in the ELISA.

[4] = test system: mouse lymphoma cell line L5178Y TK^+/−; test: Generation of reactive oxygen species (ROS) in mouse lymphoma cells; assay type: cell-based; settings: up to 100 μM; 3 h exposure; vs vehicle control
Protocol: The objective of the study was to investigate the generation of reactive oxygen species (ROS) induced by the test item, estetrol (E4), in a mouse lymphoma cell line L5178Y TK^+/−.
L5178Y TK^+/− cells in logarithmic phase of growth were plated in black 96 well cell culture plates at 1×10^4 cells in 90 μL of cell culture media. Controls and test item in triplicate were applied to the cells as a 10× concentrate in 10 μL of a 10% ethanol solution in PBS (final concentration of ethanol on plate was 1%). Cells were incubated for 3 hours at 37° C., 5% CO2, and the generation of ROS was evaluated by fluorescence with a ROS reagent: the ROS reagent was freshly prepared by dissolving one ampoule of reagent (50 μg) in 70 μL DMSO and further diluting this with 2.1 mL of pre-warmed PBS. 10 μL of ROS reagent was added to each well and the plate were shaken for 30 seconds in the dark. The plates were incubated approximately at 37° C., 5% CO2 for 1 h 30 min and fluorescence was read on a plate scanner with excitation at 492 nm and emission at 520 nm.

C[C@]12CC[C@@H]3c4ccc(O)cc4CC[C@H]3[C@@H]1CC[C@@H]2O [E2, 17β-estradiol, reference compound]
effect on the gap closure by NHEK ([1]; 10^−7M to 10^−9 M, after 24 h of treatment, significant only for 10^−8M): inhibitor effect on the gap closure
colonization of the cell-free area by NHEK, overall ([1]; absence of MMC): not able to significantly increase the colonization of the cell-free area; also recorded: no significant effect on keratinocyte proliferation or migration
colonization of the cell-free area by NHEK, overall ([1]; presence of MMC): not able to significantly increase the colonization of the cell-free area; also recorded: no significant effect on keratinocyte proliferation or migration
NHDF Proliferation & Migration (colonization of the acellular area) ([2]; 10^−7M, vs ethanol control): increased the colonization of the acellular area; also recorded: significant activity
NHDF Proliferation & Migration (colonization of the acellular area) ([2]; 10^−8M, vs ethanol control): increased the colonization of the acellular area; also recorded: significant activity
NHDF Proliferation & Migration (colonization of the acellular area) ([2]; 10^−10M, vs ethanol control): increased the colonization of the acellular area; also recorded: significant activity
colonization of the cell-free gap by NHDF, overall ([2]; presence of MMC, all four concentrations (10^−7M to 10^−10M), vs ethanol control): not able to significantly increase the colonization of the cell-free gap
PMA/A23187-induced IL-6 release [3]: unaffected; also recorded: not observed

OO [hydrogen peroxide, reference compound]
levels of ROS (controls) [4]: tendency to increase the levels of ROS

B1: PDGF-BB: positive control at 10 ng/ml for human fibroblasts (protein, UniProt P01127 82-190, looked up)
Platelet-derived growth …: SLGSLTIAEPAMIAECKTRTEVFEISRRLIDRTNANFLVWPPCVEVQRCSGCCNNRNVQCRPTQVQLRPVQVRKIEIVRKKPIFKKATVTLEDHLACKCETVAAARPVT
colonized area, NHDF, positive reference ([2]; in absence of MMC): significantly increases the colonized area
colonized area, NHDF, positive reference ([2]; in presence of MMC): significantly increases the colonized area
